Results taken from article PMC3671111, “A Phase I, open-label, randomized, crossover study in three parallel groups to evaluate the effect of Rifampicin, Ketoconazole, and Omeprazole on the pharmacokinetics of THC/CBD oromucosal spray in healthy volunteers” (SpringerPlus, 2013).
Several values for one entry are separate records, joined by “and”; a condition that tells them apart may be missing. Identical values can stand only once. Marks after values point to notes of the source that are not given here.

Key:
[1] = male, human, in vivo, 9 days
Text: A total of 36 healthy males subjects enrolled and were divided into three groups of 12. Within each group participants were randomized to one of two treatment sequences with six subjects receiving each sequence.
The safety endpoints were blood pressure, heart rate, ECG, clinical laboratory data (haematology and biochemistry), urinalysis, AEs and concomitant medications, recorded at each visit.

[2] = Phase I drug-drug interaction PK, Group 2: THC/CBD spray alone or with ketoconazole, plasma by GC-MS; details: for AUC(0-inf) / AUC(0-t) / CL/F / Cmax / Kel / Varea/F / t½ / Tmax: plasma; for AUC(0-inf) / AUC(0-t) / CL/F / Cmax / Kel / Varea/F / t½: mean (SD); for Tmax: median (range)
Experimental: (§1) Subjects received rifampicin on Days 1-9. […] Subjects received ketoconazole on Days 1-4.
(§2) Blood samples were collected at specified times and stored on ice (except rifampicin PK samples which were stored in iced water) prior to processing and storage. Plasma samples were separated by centrifugation (approximately 2500 rpm × 15 minutes at 4°C). Samples were stored in 4 mL amber glass screw top glass vials with PTFE lined screw caps labelled with Guys Drug Research (Quintiles Limited) labels. The aliquots were stored in clearly labelled containers in a freezer set at or below -20°C, until shipped for assay. Samples were shipped on dry ice at the appropriate time-points.
(§3) The assay validation was undertaken by Advanced Bioanalytical Service Laboratories (London, UK), who developed the technique after reviewing the literature, which was based on the methodology adopted by three different groups (Foltz et al. [1983]; Goodall & Basteyns [1995]; Kemp et al. [1995]), and designed with reference to FDA guidelines for industry (FDA Guidance for Industry [2012]). The method utilised protein precipitation, solvent extraction and derivatisation for the sample preparation and then sample analysis by capillary gas chromatography and detection by a mass spectrometer (GC-MS). The validation procedure investigated the calibration model with the best regression fit over the concentration range 0.1 - 100 ng/mL for CBD, THC and 11-OH-THC, as well as precision and accuracy of the method, stability, carry-over, and specificity.
(§4) Human plasma from healthy volunteers was used to prepare the standards and quality control (QC) samples, with analytes extracted using hexane/ethyl acetate (7:1 ratio), derivatised with N,O-Bis(trimethylsilyl)trifluoroacetamide. Analytic grade THC (Sigma, UK), CBD (Sigma, UK) and 11-OH-THC (Radian International and Cerillant, UK) were obtained, and three sets of CBD, THC and 11-OH-THC were used to support the study. Deuterated THC-d3 (Sigma, UK) was used as the internal standard. The GC-MS equipment was a Hewlett Packard 6890 Gas Chromatograph attached to a Hewlett Packard 5973 Mass Selective Detector. Data handling was carried out using an MS Chemstation System and the peak area ratio of the analytes to the internal standard was calculated in Excel (2000). The concentrations were calculated from the ratio data using least squares ln(y) on ln(x) regression performed in Excel (2000), and were then checked manually. Regression analysis was undertaken to find the regression model that best described the calibration data (for details, see ([Miller & Miller 1992])).
(§5) A 0.5 mL aliquot of test sample, QC or blank plasma was placed into a test tube. The blank plasma was spiked with 50 μL of the appropriate standard solution to produce the calibration standards. 50 μL of the internal standard was added to each test tube. The samples were then diluted by the addition of 500 μL of 0.1% (w/v) ascorbic acid and the protein precipitated by the addition of 1.0 mL of acetonitrile. The proteins were removed by centrifugation and the supernatant concentrated to 1 mL using nitrogen at 50 °C. The samples were then basified by the addition of 300 μL of 5M sodium hydroxide and the analytes extracted by the addition of 2.0 mL of 7:1 hexane:ethyl acetate. After mixing for 16 minutes the tubes were centrifuged and the top layer transferred into clean 3 dram vials. The solvent was removed using nitrogen at 70 °C and the dried extract resuspended in 100 μL of BSTFA and transferred to microvials, capped and placed at 70 °C for 30 minutes to derivatise the analytes. The microvials were then cooled and loaded onto the autosampler tray for analysis where 1 μL was injected onto the GC-MS system.

[3] = Phase I drug-drug interaction PK, Group 1: THC/CBD spray alone or with rifampicin, plasma by GC-MS; details: for AUC(0-inf) / AUC(0-t) / CL/F / Cmax / Kel / Varea/F / t½ / Tmax: n = 12, plasma; for AUC(0-inf) / AUC(0-t) / CL/F / Cmax / Kel / Varea/F / t½: mean (SD); for Tmax: median (range)
Experimental: as §1, §2, §3, §4, §5

[4] = Phase I drug-drug interaction PK, Group 3: THC/CBD spray alone or with omeprazole, plasma by GC-MS; details: for AUC(0-inf) / AUC(0-t) / CL/F / Cmax / Kel / Varea/F / t½ / Tmax: n = 12, plasma; for AUC(0-inf) / AUC(0-t) / CL/F / Cmax / Kel / Varea/F / t½: mean (SD); for Tmax: median (range); for Cmax and AUC % Co-efficient of Variation (CV%) range: inter-subject variability
Experimental: as §1, §2, §3, §4, §5

[5] = Ketoconazole and THC/CBD spray vs THC/CBD spray alone, no-interaction range 0.80 to 1.25
[6] = THC/CBD spray 4 sprays and ketoconazole 400 mg at end of 5-day dosing period, n = 11
[7] = THC/CBD spray alone, single dose 4 sprays (10.8/10 mg), ketoconazole group, n = 12
[8] = THC/CBD spray co-administered with ketoconazole vs alone
[9] = Rifampicin and THC/CBD spray vs THC/CBD spray alone, no-interaction range 0.80 to 1.25
[10] = THC/CBD spray 4 sprays and rifampicin 600 mg after repeated daily dosing
[11] = THC/CBD spray alone, single dose 4 sprays (10.8/10 mg), rifampicin group
[12] = THC/CBD spray co-administered with rifampicin vs alone
[13] = Omeprazole and THC/CBD spray vs THC/CBD spray alone, no-interaction range 0.80 to 1.25
[14] = THC/CBD spray 4 sprays and omeprazole 40 mg at end of 6-day dosing period
[15] = THC/CBD spray alone, single dose 4 sprays (10.8/10 mg), omeprazole group
[16] = THC/CBD spray co-administered with omeprazole vs alone

CO[C@H]1/C=C/O[C@@]2(C)Oc3c(C)c(O)c4c(O)c(c(/C=N/N5CCN(C)CC5)c(O)c4c3C2=O)NC(=O)/C(C)=C\C=C\[C@H](C)[C@H](O)[C@@H](C)[C@@H](O)[C@@H](C)[C@H](OC(C)=O)[C@@H]1C [Rifampicin, rifampicin]
Dysgeusia (TEAE) [1]: 1 (8) No. of subjects (%) | Headache (TEAE) [1]: 0 No. of subjects (%) | Somnolence (TEAE) [1]: 0 No. of subjects (%)

CCCCCc1cc(O)c2c(c1)OC(C)(C)[C@@H]1CCC(C)=C[C@@H]21 [THC, Δ9-tetrahydrocannabinol]
Geometric mean ratio of AUC(0-inf), point estimate [2, 5]: 1.840 | Geometric mean ratio of AUC(0-t), point estimate [2, 5]: 1.770 | Geometric mean ratio of Cmax, point estimate [2, 5]: 1.252 | AUC(0-inf) [2, 6]: 16.76 (13.80) h*ng/mL | AUC(0-t) [2, 6]: 15.38 (13.43) h*ng/mL | CL/F [2, 6]: 920 L/h and 920 (450) L/h | Cmax [2, 6]: 3.36 (1.65) ng/mL | Kel [2, 6]: 0.189 (0.078) h^-1 | Varea/F [2, 6]: 5111 (2221) L | t½ [2, 6]: 4.43 (2.19) h | Tmax [2, 6]: 1.75 (1.00-3.00) h | AUC(0-inf) [2, 7]: 9.22 (5.94)^a h*ng/mL | AUC(0-t) [2, 7]: 8.19 (5.67) h*ng/mL | CL/F [2, 7]: 1504 L/h and 1504 (688)^a L/h | Cmax [2, 7]: 2.65 (1.32) ng/mL | Kel [2, 7]: 0.258 (0.092)^a h^-1 | Varea/F [2, 7]: 6328 (4164)^a L | t½ [2, 7]: 3.07 (1.31)^a h | Tmax [2, 7]: 1.50 (0.75-6.00) h | % change in mean Tmax [2, 8]: +17% | % change in t1/2 [2, 8]: +44% | Change in mean Cmax ([2]; THC/CBD spray with ketoconazole vs THC/CBD spray alone): +27% | Change in mean CL/F ([2]; co-administered with ketoconazole vs THC/CBD spray alone): -39% | Substrate for the isoenzyme CYP3A4 (conclusion from ketoconazole interaction) ([2]; suggested by increased exposure with ketoconazole): substrates | Geometric mean ratio of AUC(0-inf), point estimate [3, 9]: 0.761 | Geometric mean ratio of AUC(0-t), point estimate [3, 9]: 0.711 | Geometric mean ratio of Cmax, point estimate [3, 9]: 0.614 | AUC(0-inf) [3, 10]: 7.53 (2.99) h*ng/mL | AUC(0-t) [3, 10]: 6.53 (2.70) h*ng/mL | CL/F [3, 10]: 1595 L/h and 1595 (473) L/h | Cmax [3, 10]: 1.88 (1.07) ng/mL | Kel [3, 10]: 0.189 (0.071) h^-1 | Varea/F [3, 10]: 10297 (5888) L | t½ [3, 10]: 4.93 (3.91) h | Tmax [3, 10]: 1.75 (1.25-2.57) h | AUC(0-inf) [3, 11]: 9.86 (3.35)^a h*ng/mL | AUC(0-t) [3, 11]: 9.10 (2.98) h*ng/mL | CL/F [3, 11]: 1207 L/h and 1207 (373)^a L/h | Cmax [3, 11]: 2.94 (1.21) ng/mL | Kel [3, 11]: 0.197 (0.093)^a h^-1 | Varea/F [3, 11]: 7625 (4326)^a L | t½ [3, 11]: 4.68 (3.42) ^a h | Tmax [3, 11]: 1.01 (0.50-6.02) h | % change in mean t1/2 [3, 12]: +5% | % change in median Tmax [3, 12]: +73% | Change in mean Cmax ([3]; THC/CBD spray with rifampicin vs THC/CBD spray alone): -36% | Change in mean CL/F ([3]; after multiple dose rifampicin treatment vs THC/CBD spray alone): +32% | Geometric mean ratio of AUC(0-inf), point estimate [4, 13]: 0.962 | Geometric mean ratio of AUC(0-t), point estimate [4, 13]: 0.964 | Geometric mean ratio of Cmax, point estimate [4, 13]: 1.125 | AUC(0-inf) [4, 14]: 8.10 (4.78) h*ng/mL | AUC(0-t) [4, 14]: 7.41 (4.75) h*ng/mL | CL/F [4, 14]: 2284 (2520) L/h | Cmax [4, 14]: 2.48 (1.06) ng/mL | Kel [4, 14]: 0.357 (0.218) h^-1 | Varea/F [4, 14]: 6052 (3384) L | t½ [4, 14]: 2.37 (0.92) h | Tmax [4, 14]: 1.25 (1.00-1.75) h | AUC(0-inf) [4, 15]: 9.39 (8.81) h*ng/mL | AUC(0-t) [4, 15]: 8.76 (8.62) h*ng/mL | CL/F [4, 15]: 2161 (1990) L/h | Cmax [4, 15]: 2.50 (1.85) ng/mL | Kel [4, 15]: 0.305 (0.109) h^-1 | Varea/F [4, 15]: 6889 (5296) L | t½ [4, 15]: 2.65 (1.25) h | Tmax [4, 15]: 1.25 (0.77-3.02) h | Plasma concentrations and PK parameters compared with THC/CBD spray alone ([4]; THC/CBD spray at end of 6-day omeprazole dosing): similar | % change in Tmax [4, 16]: 0% | % change in t1/2 [4, 16]: -11% | Differences in CL/F on co-administration with omeprazole ([4]; THC/CBD spray with omeprazole vs alone): No significant differences | Substrate for the isoenzyme CYP2C19 (conclusion from omeprazole interaction) ([4]; at the clinically relevant dose of THC/CBD spray investigated): not substrates | Cmax and AUC % Co-efficient of Variation (CV%) range ([4]; THC/CBD spray alone, omeprazole group): 74-98% | Cmax and AUC % Co-efficient of Variation (CV%) range ([4]; THC/CBD spray in combination with omeprazole): 43-64%
